Experimental data taken from patent publication US20250017942A1, “Prevention and treatment of osteoarticular diseases by inhibiting acetylcholinesterase” (priority 2021, published 2025).
Where a name gives a salt, the structure may show the parent alone.

Assays:
[1] = target: AChE (rat cortex homogenate) (Rattus norvegicus, UniProt P37136); assay: biochemical; assay type: biochemical; details: for IC50: rat cortex homogenate, in the presence of ethopropazine as a specific BuChE inhibitor
[2] = test system: RAW 264.7 cells; assay: RANKL-induced osteoclastogenesis of RAW 264.7 cells; assay type: cell-based, mouse; details: RAW 264.7, RANKL 15 ng/ml 3 days, 0.1, 0.5 and 1 μM (FIG. 9)
[3] = test system: ATDC5 cells; assay: IL-1β-stimulated ATDC5 cells, marker expression by qPCR; assay type: cell-based, mouse; details: 10 ng/ml IL-1β, 24 h, qPCR (FIG. 3A)

AChE (rat cortex homogenate), sequence (P37136 32-614): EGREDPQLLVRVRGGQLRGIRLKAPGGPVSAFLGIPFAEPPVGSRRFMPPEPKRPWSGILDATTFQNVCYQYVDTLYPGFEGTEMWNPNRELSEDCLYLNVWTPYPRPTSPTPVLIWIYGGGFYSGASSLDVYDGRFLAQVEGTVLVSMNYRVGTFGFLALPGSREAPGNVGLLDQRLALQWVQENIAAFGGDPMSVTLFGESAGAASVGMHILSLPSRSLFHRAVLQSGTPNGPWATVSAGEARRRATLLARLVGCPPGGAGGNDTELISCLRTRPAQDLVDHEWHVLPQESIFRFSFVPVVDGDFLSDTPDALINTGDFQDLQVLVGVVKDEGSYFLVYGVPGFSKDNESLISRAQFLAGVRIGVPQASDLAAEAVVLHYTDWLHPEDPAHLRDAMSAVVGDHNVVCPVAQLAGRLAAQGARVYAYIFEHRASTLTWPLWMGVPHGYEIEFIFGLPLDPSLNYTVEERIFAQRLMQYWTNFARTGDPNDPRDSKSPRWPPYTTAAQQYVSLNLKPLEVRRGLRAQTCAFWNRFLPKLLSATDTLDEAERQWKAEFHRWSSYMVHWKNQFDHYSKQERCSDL

Structure (SMILES): O=c1ccc2c([nH]1)CCCC2NCCCCCCCCCCCNC1CCCc2[nH]c(=O)ccc21 (stereo not drawn) [E11E]
- IC50 [1]: 84 ± 5 nM

Structure (SMILES): O=c1ccc2c([nH]1)CCC[C@@H]2NCCCCCCCCCCCCN[C@H]1CCCc2[nH]c(=O)ccc21 [E12E, (S,S)-(−)-N, N′-di-5′-(5′, 6′7′,8′-tetrahydroquinolin-2-onyl)-1,12-diaminododecane, bis-hydrochloride]
- Osteoclastogenesis [2]: suppressed osteoclastogenesis in a dose-dependent manner
- Potency in inhibiting rat brain AChE relative to HA [1]: about twice as potent as HA
- Potency in inhibiting rat brain AChE relative to tacrine [1]: about 4.4 times
- Pro-inflammatory cytokine expression after IL-1β stimulation [3]: down-regulating key pro-inflammatory cytokines including TNF-alpha

Structure (SMILES): O=c1ccc2c([nH]1)CCCC2NCCCCCCCCCCCCCNC1CCCc2[nH]c(=O)ccc21 (stereo not drawn) [E13E]
- IC50 [1]: 52 ± 9 nM
